target: T1, Recombinant human liver GK1 (GST-GK) (Homo sapiens, UniProt P35557); experiment: Glucokinase in vitro assay (G6PDH-coupled NADH generation, OD340); assay type: biochemical; conditions: 5 mM D-glucose, 30° C., pH 7.1, 10% DMSO
T1 construct: made in house; host or cells: E. coli
T1 sequence (P35557 1-466 isoform P35557-2): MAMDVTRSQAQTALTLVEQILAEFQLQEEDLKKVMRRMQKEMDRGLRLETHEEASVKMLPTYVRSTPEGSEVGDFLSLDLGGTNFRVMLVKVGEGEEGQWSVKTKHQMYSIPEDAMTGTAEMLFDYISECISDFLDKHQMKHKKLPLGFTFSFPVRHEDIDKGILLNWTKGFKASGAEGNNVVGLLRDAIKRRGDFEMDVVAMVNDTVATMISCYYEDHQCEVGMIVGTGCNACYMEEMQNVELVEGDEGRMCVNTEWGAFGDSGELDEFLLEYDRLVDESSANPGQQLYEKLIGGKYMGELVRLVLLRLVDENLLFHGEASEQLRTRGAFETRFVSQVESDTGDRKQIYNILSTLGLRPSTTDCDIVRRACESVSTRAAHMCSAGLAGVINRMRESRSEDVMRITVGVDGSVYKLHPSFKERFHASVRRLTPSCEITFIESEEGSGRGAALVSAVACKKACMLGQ
How it was run: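 Activation readout is SC1.5, the activator concentration raising GK rate (OD340/min) 50% above 10% DMSO controls. The coupled reaction used GST-GK1 from E. coli, 5 mM glucose, 1 mM ATP, 1.8 mM NAD and 25 mM Hepes pH 7.1 at 30° C. Enzyme was added after a 10 min compound pre-incubation.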

Structure (SMILES) | SC1.5 average (concentration of activator that produced a 50% increase in the activity of GK)
O=C(Nc1ccn(CCO)n1)C(CC1CCCCC1)n1ncc(Oc2c(F)cccc2F)cc1=O (centres unmarked) [Example 56, 3-Cyclohexyl-2-[4-(2,6-difluoro-phenoxy)-6-oxo-6H-pyridazin-1-yl]-N-[1-(2-hydroxy-ethyl)-1H-pyrazol-3-yl]-propionamide] | 0.153 µM
O=C(Nc1ccn(CCO)n1)C(Cc1c(F)cccc1F)n1ncc(Oc2c(F)cccc2F)cc1=O (centres unmarked) [Example 57, 2-[4-(2,6-Difluoro-phenoxy)-6-oxo-6H-pyridazin-1-yl]-3-(2,6-difluoro-phenyl)-N-[1-(2-hydroxy-ethyl)-1H-pyrazol-3-yl]-propionamide] | 0.986 µM
O=C(Nc1ccn(CCO)n1)C(Cc1ccccc1)n1ncc(Oc2c(F)cccc2F)cc1=O (centres unmarked) [Example 58, 2-[4-(2,6-Difluoro-phenoxy)-6-oxo-6H-pyridazin-1-yl]-N-[1-(2-hydroxy-ethyl)-1H-pyrazol-3-yl]-3-phenyl-propionamide] | 2.719 µM
CC(C)CC(C(=O)Nc1ccn(CCO)n1)n1ncc(Oc2c(F)cccc2F)cc1=O (centres unmarked) [Example 59, 2-[4-(2,6-Difluoro-phenoxy)-6-oxo-6H-pyridazin-1-yl]-4-methyl-pentanoic acid [1-(2-hydroxy-ethyl)-1H-pyrazol-3-yl]-amide] | 0.576 µM
O=C(Nc1ccn(CCO)n1)C(CC1CCCC1)n1ncc(Oc2c(F)cccc2F)cc1=O (centres unmarked) [Example 60, 3-Cyclopentyl-2-[4-(2,6-difluoro-phenoxy)-6-oxo-6H-pyridazin-1-yl]-N-[1-(2-hydroxy-ethyl)-1H-pyrazol-3-yl]-propionamide] | 0.166 µM
O=C(Nc1ccn(CCO)n1)[C@H](CC1CCCC1)n1ncc(Oc2c(F)cccc2F)cc1=O [Example 60A, (S)-3-Cyclopentyl-2-[4-(2,6-difluoro-phenoxy)-6-oxo-6H-pyridazin-1-yl]-N-[1-(2-hydroxy-ethyl)-1H-pyrazol-3-yl]-propionamide] | 0.066 µM
O=C(Nc1ccn(CCO)n1)[C@@H](CC1CCCC1)n1ncc(Oc2c(F)cccc2F)cc1=O [Example 60B, (R)-3-Cyclopentyl-2-[4-(2,6-difluoro-phenoxy)-6-oxo-6H-pyridazin-1-yl]-N-[1-(2-hydroxy-ethyl)-1H-pyrazol-3-yl]-propionamide] | 1.942 µM
CC(C)CC(C(=O)Nc1ccn(C[C@@H](O)CO)n1)n1ncc(Oc2c(F)cccc2F)cc1=O (stereo partly drawn) [Example 61, 2-[4-(2,6-Difluoro-phenoxy)-6-oxo-6H-pyridazin-1-yl]-4-methyl-pentanoic acid [1-((R)-2,3-dihydroxy-propyl)-1H-pyrazol-3-yl]-amide] | 0.383 µM
O=C(Nc1ccn(C[C@@H](O)CO)n1)C(CC1CCOCC1)n1ncc(Oc2c(F)cccc2F)cc1=O (stereo partly drawn) [Example 62, 2-[4-(2,6-difluoro-phenoxy)-6-oxo-6H-pyridazin-1-yl]-N-[1-((R)-2,3-dihydroxy-propyl)-1H-pyrazol-3-yl]-3-(tetrahydro-pyran-4-yl)-propionamide] | 0.373 µM
O=C(Nc1ccn(C[C@@H](O)CO)n1)C(CC1CCCCC1)n1ncc(Oc2c(F)cccc2F)cc1=O (stereo partly drawn) [Example 63, 3-Cyclohexyl-2-[4-(2,6-difluoro-phenoxy)-6-oxo-6H-pyridazin-1-yl]-N-[1-((R)-2,3-dihydroxy-propyl)-1H-pyrazol-3-yl]-propionamide] | 0.117 µM
CCC(CC)CC(C(=O)Nc1ccn(C[C@@H](O)CO)n1)n1ncc(Oc2c(F)cccc2F)cc1=O (stereo partly drawn) [Example 64, 2-[4-(2,6-Difluoro-phenoxy)-6-oxo-6H-pyridazin-1-yl]-4-ethyl-hexanoic acid [1-((R)-2,3-dihydroxy-propyl)-1H-pyrazol-3-yl]-amide] | 0.551 µM

From US8258134B2, “Pyridazinone glucokinase activators” (Hoffmann-La Roche Inc., priority 2008, dated 2012)
